# Measurements published in PubChem BioAssay AID1645864 (Buhrlage Lab, Dana-Farber Cancer Institute and Novartis …, 2021).
# Active and inactive are the calls of the source.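 How the source made its calls: active means maximal inhibition of USP17 at or above 30% in the confirmation dose-response, a value not among the printed readouts; inactive means the rest.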
# Molecular target: Ubiquitin carboxyl-terminal hydrolase 17-like protein 5 (Homo sapiens) (UniProt A8MUK1)
# Experiment: ubiquitin-specific protease 17 DUB inhibitors, concentration-effect assay, cell-free, verification of initial screening actives (AID 1645864)
# Settings: purified USP17, ubiquitin-rhodamine cleavage fluorescence, 3 h
# Ubiquitin carboxyl-terminal hydrolase 17-like protein 5 (Homo sapiens), sequence (A8MUK1 whole entry, looked up): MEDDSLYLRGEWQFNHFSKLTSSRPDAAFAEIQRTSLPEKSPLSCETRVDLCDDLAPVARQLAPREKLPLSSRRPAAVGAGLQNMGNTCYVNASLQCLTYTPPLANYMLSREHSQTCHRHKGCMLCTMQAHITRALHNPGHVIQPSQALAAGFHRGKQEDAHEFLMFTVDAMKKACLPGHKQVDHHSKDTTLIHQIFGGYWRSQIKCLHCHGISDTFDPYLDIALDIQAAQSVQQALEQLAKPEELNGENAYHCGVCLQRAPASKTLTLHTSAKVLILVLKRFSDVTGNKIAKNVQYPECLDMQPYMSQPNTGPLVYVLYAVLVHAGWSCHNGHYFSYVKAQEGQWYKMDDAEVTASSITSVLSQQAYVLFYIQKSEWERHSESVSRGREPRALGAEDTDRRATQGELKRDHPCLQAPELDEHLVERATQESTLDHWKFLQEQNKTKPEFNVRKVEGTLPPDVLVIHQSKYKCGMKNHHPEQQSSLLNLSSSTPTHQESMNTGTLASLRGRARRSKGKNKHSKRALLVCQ
row,IC50,SMILES
1,> 50 µM (inactive),Cc1nc2cc(NC(=O)C3CN(C(=O)c4cnccn4)C3)ccc2s1
2,6.42 µM,COc1ccc2nc(SCC(=O)Nc3ccc(NC(C)=O)cc3)c(C)cc2c1
3,24.2 µM,COc1ccc(CC(=O)Nc2ccc3nc(N4CCOCC4)cc(C)c3c2)cc1
4,32.8 µM,O=C(CN1C(=O)NC2(CCCCC2)C1=O)Nc1ccc([N+](=O)[O-])cc1
5,> 50 µM (inactive),O=C(Nc1ccc2c(c1)OCCO2)c1cc(CN2CCCC2)on1
6,24 µM,COc1ccc(NC(=O)Cn2cc(C(=O)c3ccc(F)cc3)c(=O)c3cc(C)ccc32)cc1
7,4.92 µM,O=C(COC(=O)c1cc(Cl)c2c(c1)OCO2)Nc1ccc2[nH]c(=O)[nH]c2c1
8,35.1 µM,Cc1cccc(NC(=O)CSc2nnc(-c3n[nH]c4c3CCC4)n2N)c1
9,42.5 µM,COc1ccc(NC(=O)CSc2nc(N)c3c4c(sc3n2)COC(C)(C)C4)cc1
10,> 50 µM (inactive),O=C(O)C1CCN(Cc2c(-c3ccco3)nc3ccc(Cl)cn23)CC1
11,> 50 µM (inactive),O=C(NCc1ccc(F)cc1)C1CCCN(c2cnc3nccnc3c2)C1 (centres undefined)
12,> 50 µM (inactive),Cn1c(CCN2CCCC2)nc2cc(NC(=O)c3ccccc3)ccc21
13,> 50 µM (inactive),O=C(Nc1ccc2c(c1)OCCO2)c1cc(CN2CCOCC2)on1
14,> 5 µM (inactive),O=C(CCC1CCCCC1)Nc1ccccc1C(=O)N1CCOCC1
15,32.6 µM,Cc1ccc(NC(=O)Cn2c(-n3nc(C)cc3C)nc3c(c2=O)CCCC3)c(C)c1

# Second part, the compound before the results:
row,SMILES,IC50
1,COc1ccc(CC(NC(C)=O)C(=O)NC2CCN(c3c(Cc4ccccc4)c(C)nc4ncnn34)CC2)cc1OC (centres undefined),> 50 µM (inactive)
2,Cc1cc(C)cc(NC(=O)CSc2ccc(-c3ccncc3)nn2)c1,> 50 µM (inactive)
3,O=C(NC1CCN(Cc2ccccc2)CC1)c1[nH]nc2c1COc1ccccc1-2,> 50 µM (inactive)
4,CC(=O)N1CCc2cc(S(=O)(=O)NC(Cc3ccccc3)C(=O)Nc3cccc(Cl)c3C)ccc21 (centres undefined),12.9 µM
5,O=C(NCc1nc2ccccc2[nH]1)c1cccc(S(=O)(=O)N2CCc3ccccc32)c1,> 50 µM (inactive)
6,CN(C(=O)CSc1nnc(-c2cc3ccccc3n2C)o1)c1ccccc1,> 50 µM (inactive)
7,COc1ccccc1-c1nc(-c2nnn(Cc3ccc(C)cc3)c2C)no1,> 50 µM (inactive)
8,COc1ccc(NC(=O)c2sc(N3CCOCC3)nc2-c2ccccc2)c(OC)c1,27.7 µM
9,Cc1ccc2nc(N3CCc4ccccc4C3)c3nncn3c2c1,> 50 µM (inactive)
10,CCN(CC)C(=O)CN1CCCC(c2ncncc2-c2cc(C)no2)C1 (centres undefined),> 50 µM (inactive)
11,O=C(NCc1ccccc1Cl)c1ccc(-c2nnc(-c3ccccc3)o2)cc1,2.5 µM
12,O=C(COc1nc2ccccc2nc1N1CCOCC1)NC(c1ccccc1)c1ccccc1,> 50 µM (inactive)
13,COc1ccc(C)cc1NC(=O)C(NS(=O)(=O)c1ccc2c(c1)CCN2C(C)=O)C(C)C (centres undefined),> 50 µM (inactive)
14,COc1ccc(S(=O)(=O)N2CCN3Cc4ccccc4N(C)CC3C2)cc1 (centres undefined),> 50 µM (inactive)
15,Fc1ccc(CN2CCc3nc4cccnc4cc3C2)cc1,> 50 µM (inactive)
16,CCOC(=O)c1cc2c(ccn2C)n1CC(=O)N1CCC(C)CC1,> 50 µM (inactive)
17,Cc1ccc2nc(-c3cccc(-c4nc5ccc(C)cc5[nH]4)n3)[nH]c2c1,7.06 µM

row,SMILES,IC50
1,O=C(NCc1cccnc1)c1cnn2c(C(F)(F)F)cc(-c3ccc(F)cc3)nc12,27.7 µM
2,Cc1c(C(=O)NCc2cccc(Br)c2)oc2c1-c1[nH]ncc1CC2,29.1 µM
3,COc1cc(-c2cc(C(=O)Nc3cc(C)[nH]n3)c3ccccc3n2)cc(OC)c1OC,42.9 µM
4,Cc1ccc(CN2C(=O)c3cc4ccccc4n3CC2(C)C(=O)NCc2ccccc2)o1 (centres undefined),26.7 µM
5,CCCn1c(=O)n(CC(=O)c2ccccc2F)c2c(C(N)=O)nc(-c3ccco3)nc21,> 50 µM (inactive)
6,CCc1cc2c(=O)[nH]c(Cc3ccc(OC)cc3)nc2s1,22.5 µM
7,CSc1ncccc1C(=O)OCc1ccc(Br)cc1,> 50 µM (inactive)
8,CCOC(=O)c1c(C)oc2nc(CSc3ccccc3)[nH]c(=O)c12,> 50 µM (inactive)
9,Clc1cc2nc(N3CCN(c4ccccn4)CC3)c3nncn3c2cc1Cl,2.17 µM
10,O=C(NCCN1CCCC1)C1CCN(c2cnc(N3CCCCC3)nc2)CC1,> 50 µM (inactive)
11,Cc1nn(Cc2ccccc2)c2sc(C(=O)Nc3nc4ccccc4[nH]3)cc12,23.5 µM
12,COCCNC(=O)c1ccn(-c2ccc3ccc(-c4ccncc4)cn23)n1,> 50 µM (inactive)
13,CC(C)c1cc2c(c(O)c1O)[C@@]13CCCC(C)(C)[C@@H]1C[C@@H]2OC3=O,19.5 µM
14,CCOc1ccc(C(=O)Cn2c(=O)n(CC3CCCO3)c(=O)c3cc(OC)c(OC)cc32)cc1Cl (centres undefined),17.7 µM
15,O=C(Cc1cc(-c2ccccc2)on1)NCc1c(F)cccc1F,28.1 µM
16,COc1cccc(NC(=O)c2ccc(-c3csc(C)n3)cc2)c1,> 50 µM (inactive)
17,CCn1cnc2ccc(C(=O)NC3CC3)cc2c1=O,> 50 µM (inactive)
